In patent US11254686B1 (Corvus Pharmaceuticals, Inc., priority 2017, dated 2022):

What was measured:
adenosine A2A receptor = adenosine A2A receptor (Homo sapiens (Human), UniProt P29274); assay: Adenosine receptor activity assay (Table 1), A2A activity; type: biochemical; conditions: read-out: Ave A2A cAMP IC50
adenosine A2B receptor = adenosine A2B receptor (Homo sapiens (Human), UniProt P29275); assay: Adenosine receptor activity assay (Table 1), A2B activity; type: biochemical; conditions: for IC50: read-out: Ave A2B cAMP IC50
adenosine A2B receptor, sequence (P29275 whole entry): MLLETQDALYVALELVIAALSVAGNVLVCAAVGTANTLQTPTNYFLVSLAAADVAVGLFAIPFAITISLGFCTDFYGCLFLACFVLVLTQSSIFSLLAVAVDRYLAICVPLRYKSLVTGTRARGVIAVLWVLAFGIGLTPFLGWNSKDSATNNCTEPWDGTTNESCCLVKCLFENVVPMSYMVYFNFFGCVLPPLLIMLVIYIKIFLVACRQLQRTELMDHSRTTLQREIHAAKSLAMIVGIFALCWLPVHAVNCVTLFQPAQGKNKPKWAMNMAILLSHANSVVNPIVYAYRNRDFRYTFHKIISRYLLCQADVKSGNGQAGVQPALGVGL

[1] = A2A activity to the A2B activity, A2A/A2B

adenosine A2A receptor, sequence (P29274 whole entry): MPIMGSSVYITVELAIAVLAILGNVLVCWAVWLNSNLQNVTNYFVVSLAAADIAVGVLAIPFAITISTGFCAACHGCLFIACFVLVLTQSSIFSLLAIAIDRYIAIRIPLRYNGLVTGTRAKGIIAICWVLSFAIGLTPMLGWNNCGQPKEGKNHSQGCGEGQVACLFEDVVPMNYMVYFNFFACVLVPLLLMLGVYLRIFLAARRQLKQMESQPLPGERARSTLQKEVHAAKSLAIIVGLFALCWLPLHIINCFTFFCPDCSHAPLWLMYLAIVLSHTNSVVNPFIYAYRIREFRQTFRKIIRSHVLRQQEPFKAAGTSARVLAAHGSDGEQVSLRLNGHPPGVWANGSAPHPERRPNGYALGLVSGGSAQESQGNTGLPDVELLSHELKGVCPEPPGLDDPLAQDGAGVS

Compound	IC50 (adenosine A2A receptor)	Ratio (adenosine A2B receptor; [1])	IC50 (adenosine A2B receptor)	Ratio (adenosine A2B receptor; A2A activity to A2B activity (A2A/A2B))
C[C@H](Nc1nc(C(=O)N2CC(C(=O)NCCO)C2)c2sccc2n1)c1cncc(F)c1 [Example Z547, (S)-1-(2-((1-(5-Fluoropyridin-3-yl)ethyl)amino)thieno[3,2-d]pyrimidine-4-carbonyl)-N-(2-hydroxyethyl)azetidine-3-carboxamide]	> 500 nM	43.40	50 to 100 nM	
C[C@H](Nc1nc(C(=O)N2CCC(C(=O)NC(C)(C)C)C2)c2sccc2n1)c1cncc(F)c1 (stereo partly drawn) [Example Z548, N-(tert-Butyl)-1-(2-(((S)-1-(5-fluoropyridin-3-yl)ethyl)amino)thieno[3,2-d]pyrimidine-4-carbonyl)pyrrolidine-3-carboxamide]	100 to 500 nM		10 to 50 nM	
C[C@H](Nc1nc(C(=O)N2CC(CN(C)C(=O)CC(C)(C)C)C2)c2sccc2n1)c1cncc(F)c1 [Example Z550, (S)—N-((1-(2-((1-(5-Fluoropyridin-3-yl)ethyl)amino)thieno[3,2-d]pyrimidine-4-carbonyl)azetidin-3-yl)methyl)-N,3,3-trimethylbutanamide]	50 to 100 nM	4.79	10 to 50 nM	
COc1ccc([C@H](C)Nc2nc(C(=O)N3CC(NC(=O)OC(C)C)C3)c3sc(C)cc3n2)cc1 [Example Z555, Isopropyl (S)-(1-(2-((1-(4-methoxyphenyl)ethyl)amino)-6-methylthieno[3,2-d]pyrimidine-4-carbonyl)azetidin-3-yl)carbamate]	50 to 100 nM	0.18	100 to 500 nM	
COc1ccc([C@H](C)Nc2nc(C(=O)N3CC(NC(C)=O)C3)c3sc(C)cc3n2)cc1 [Example Z556, (S)—N-(1-(2-((1-(4-Methoxyphenyl)ethyl)amino)-6-methylthieno[3,2-d]pyrimidine-4-carbonyl)azetidin-3-yl)acetamide]	50 to 100 nM	0.22	100 to 500 nM	
C[C@H](Nc1nc(C(=O)N2CC(C(N)=O)C2)c2sccc2n1)c1cncc(F)c1 [Example Z563, (S)-1-(2-((1-(5-Fluoropyridin-3-yl)ethyl)amino)thieno[3,2-d]pyrimidine-4-carbonyl)azetidine-3-carboxamide]	> 500 nM	16.87	10 to 50 nM	
CC(C)C(=O)N1CCN(C(=O)c2nc(N[C@@H](C)c3cncc(F)c3)nc3ccsc23)C1 [Example Z564, (S)-1-(3-(2-((1-(5-Fluoropyridin-3-yl)ethyl)amino)thieno[3,2-d]pyrimidine-4-carbonyl)imidazolidin-1-yl)-2-methylpropan-1-one]	> 500 nM	18.15	100 to 500 nM	
C[C@H](Nc1nc(C(=O)N2CCN(C(=O)C(C)(C)C)C2)c2sccc2n1)c1cncc(F)c1 [Example Z565, (S)-1-(3-(2-((1-(5-Fluoropyridin-3-yl)ethyl)amino)thieno[3,2-d]pyrimidine-4-carbonyl)imidazolidin-1-yl)-2,2-dimethylpropan-1-one]	> 500 nM	6.39	> 500 nM	
C[C@H](Nc1nc(C(=O)N2CCN(C(=O)OCC(C)(C)C)C2)c2sccc2n1)c1cncc(F)c1 [Example Z566, Neopentyl (S)-3-(2-((1-(5-fluoropyridin-3-yl)ethyl)amino)thieno[3,2-d]pyrimidine-4-carbonyl)imidazolidine-1-carboxylate]	> 500 nM	3.10	> 500 nM	
COC[C@@H]1CCN1C(=O)c1nc(N[C@@H](C)c2cncc(F)c2)nc2ccsc12 [Example Z567, (2-(((S)-1-(5-Fluoropyridin-3-yl)ethyl)amino)thieno[3,2-d]pyrimidin-4-yl)((S)-2-(methoxymethyl)azetidin-1-yl)methanone]	> 500 nM	8.82	100 to 500 nM	
COC[C@H]1CCN1C(=O)c1nc(N[C@@H](C)c2cncc(F)c2)nc2ccsc12 [Example Z568, (2-(((S)-1-(5-Fluoropyridin-3-yl)ethyl)amino)thieno[3,2-d]pyrimidin-4-yl)((R)-2-(methoxymethyl)azetidin-1-yl)methanone]	> 500 nM	12.84	50 to 100 nM	
COC[C@@H]1CCN1C(=O)c1nc(N[C@@H](C)c2cncc(F)c2)nc2cc(C)sc12 [Example Z569, (2-(((S)-1-(5-Fluoropyridin-3-yl)ethyl)amino)-6-methylthieno[3,2-d]pyrimidin-4-yl)((S)-2-(methoxymethyl)azetidin-1-yl)methanone]	> 500 nM	40.75	100 to 500 nM	
COC[C@H]1CCN1C(=O)c1nc(N[C@@H](C)c2cncc(F)c2)nc2cc(C)sc12 [Example Z570, (2-(((S)-1-(5-Fluoropyridin-3-yl)ethyl)amino)-6-methylthieno[3,2-d]pyrimidin-4-yl)((R)-2-(methoxymethyl)azetidin-1-yl)methanone]	> 500 nM	84.36	10 to 50 nM	
C[C@H](Nc1nc(C(=O)N2CC(C(=O)OC(C)(C)C)C2)c2sccc2n1)c1cncc(F)c1 [Example Z572, tert-Butyl (S)-1-(2-((1-(5-fluoropyridin-3-yl)ethyl)amino)thieno[3,2-d]pyrimidine-4-carbonyl)azetidine-3-carboxylate]	100 to 500 nM	2.90	10 to 50 nM	
CCNC1CN(C(=O)c2nc(N[C@@H](C)c3cncc(F)c3)nc3cc(C)sc23)C1 [Example Z574, (S)-(3-(Ethylamino)azetidin-1-yl)(2-((1-(5-fluoropyridin-3-yl)ethyl)amino)-6-methylthieno[3,2-d]pyrimidin-4-yl)methanone]	> 500 nM	58.55	10 to 50 nM	
C[C@H](Nc1nc(C(=O)N2CCN(C(=O)OC(C)(C)C)C2)c2sccc2n1)c1cncc(F)c1 [Example Z584, tert-Butyl (S)-3-(2-((1-(5-fluoropyridin-3-yl)ethyl)amino)thieno[3,2-d]pyrimidine-4-carbonyl)imidazolidine-1-carboxylate]	> 500 nM	2.34	100 to 500 nM	
CC(C)NC(=O)N1CCN(C(=O)c2nc(N[C@@H](C)c3cncc(F)c3)nc3ccsc23)C1 [Example Z587, (S)-3-(2-((1-(5-Fluoropyridin-3-yl)ethyl)amino)thieno[3,2-d]pyrimidine-4-carbonyl)-N-isopropylimidazolidine-1-carboxamide]	100 to 500 nM	1.63	50 to 100 nM	
COCCC(=O)N1CCN(C(=O)c2nc(N[C@@H](C)c3cncc(F)c3)nc3ccsc23)C1 [Example Z589, (S)-1-(3-(2-((1-(5-Fluoropyridin-3-yl)ethyl)amino)thieno[3,2-d]pyrimidine-4-carbonyl)imidazolidin-1-yl)-3-methoxypropan-1-one]	> 500 nM	17.96	10 to 50 nM	
C[C@H](Nc1nc(C(=O)N2CCN(C(=O)N(C)C)C2)c2sccc2n1)c1cncc(F)c1 [Example Z590, (S)-3-(2-((1-(5-Fluoropyridin-3-yl)ethyl)amino)thieno[3,2-d]pyrimidine-4-carbonyl)-N,N-dimethylimidazolidine-1-carboxamide]	100 to 500 nM	11.22	10 to 50 nM	
(6-Amino-2-(((S)-1-(pyridin-2-yl)ethyl)amino)thieno[3,2-d]pyrimidin-4-yl)((R)-3-fluoropyrrolidin-1-yl)methanone [Example Z174]	100 to 500 nM		10 to 50 nM	15.05
